Counter-ions that a name gives are not always drawn. Like-named read-outs stand apart in the source and are kept apart here.
Legend:
[1] = tested on: Cdc7 (pS53MCM2 levels in SW48 cells); test: Cdc7 Cell Pharmacodynamics Assay Method 3: pS53MCM2 levels in SW48 cells, 6 hours; format: cell-based; details: for EC50: Homo sapiens, SW48, 6 h, read-out: Biomarker Method 3 (pEC50) (converted)
Excerpt: This protocol describes a method to investigate the inhibition of Cdc7 activity by measuring pS53MCM2 levels in cells, after treatment with compounds.
• SW48 cells • RPMI 1640 (Sigma, R5886) • 10% FCS (Sera Laboratories International Ltd, EU000F Batch:108005) • 100× L-Glutamine (Invitrogen, 25030-024) • D-Glucose Solution (10%) (Sigma, G8644) • HEPES Buffer Solution (Sigma, 83264) • Sodium Pyruvate (Sigma, S8636) • PBS (Fisger, BP399-4) • Trypsin/EDTA (Invitrogen 25300-054) • 2% BSA in PBS • Cell Extraction Buffer (Invitrogen FNN0011) • Protease inhibitor cocktail (Sigma P-2714) • PMSF 0.3M stock in DMSO (Sigma P7626) • Antibody-rabbit pMCM2 Ser53 (Bethyl #A300-756A) • Antibody-goat MCM2 (Bethyl #A300-122A) • Antibody-goat Anti Rabbit IgG HRP (Perbio Science UK Ltd 31462) • SuperSignal ELISA Pico Chemiluminescent Substrate (Perbio Science UK Ltd 37070) Method • Plate 30,000 SW48 cells per well in standard TC treated 96 well plate in 100 μL complete RPMI 1640 medium. • Allow cells to settle overnight in incubator set at 37° C. and 5% CO2. • Cell treatment: prepare a 384 well plate containing 80 μl PBS/well. The PBS should be at room temperature—to be referred to as intermediate plate. Transfer 2 μL of compound from mother plate to intermediate (daughter plate) 1:40 dilution, then 5 μL intermediate to cell (daughter) plate. • Once all cells are treated place the cells back to the incubator and incubate for 6 hours. • Dilute the capture antibody (total MCM2#A300-122A) 1 in 250 in the required volume of PBS (5 mL per assay plate, plus 5 mL for dead volume) and add 50 μL to each well of a Hybond plate. Seal the plate and incubate at room temperature for a minimum of 2 hours. • Defrost aliquot of Invitrogen Cell Extraction Buffer (FNN0011) on ice and supplement with appropriate volume of both Sigma protease inhibitor cocktail (P-2714) and PMSF (final conc 1 mM from a 1 M stock in DMSO). • After the 6 hour cell treatment time, tap out the media from the assay plates and place them in the −80° C. freezer for at least 5 minutes. • Remove plates from freezer and add 20 μL of ice cold complete lysis buffer, with the multidrop. Incubate cells for 30 minutes at 4° C. • Add 80 μL per well 2% BSA. • Flick out the remaining liquid from the capture plate and transfer 80 μL from the lysis plate to the same wells in the capture/ELISA plate, using the Biomek. Cover with plate seal and incubate plates overnight at 4° C. • Wash plates with PBS, remove any residual remaining liquid and add 50 μL per well of pMCM2 Ser53 antibody (#A300-756A) diluted 1 in 100 in 2% BSA. Cover plate and incubate at room temperature for 2 hours with gentle shaking. • Wash plates with PBS, remove any residual remaining liquid and Incubate with 50 μL goat anti rabbit antibody (1 in 800 dilution in 2% BSA), for 1 hour at room temperature. • Wash plates with PBS, remove any residual remaining liquid and add 50 μL mixed SuperSignal Pico substrate. • Incubate each plate for 5 minutes at room temperature shielding the plates from direct light (with a cover plate). Read plates with the luminescent detection.

Cdc7/ASK = Cdc7/ASK (Homo sapiens, UniProt O00311); test: Cdc7 Biochemical Assay Method 4: off-chip mobility shift assay (Carna Biosciences); set-up: purchased Carna Biosciences; host or cells: baculovirus expression system; details: off-chip MSA, MCM2 peptide, 5 hours; read-out: Biochemical Method 4 (pIC50) (converted)
Procedure: This protocol describes a method for assaying Cdc7/ASK for activity. The assay is an off-chip mobility shift assay (MSA) run at Carna Biosciences.
1. Preparation of Test Compound Solution.
The test compound was dissolved in and diluted with dimethylsulfoxide (DMSO) to achieve 100-fold higher concentration which was specified by the sponsor. Then the solution was further 25-fold diluted with assay buffer to make the final test compound solution. Reference compounds for assay control were prepared similarly.
Cdc7/ASK: Full-length human Cdc7 [1-574(end) amino acids of accession number NP_003494.1] was co-expressed as N-terminal GST-fusion protein (92 kDa) with Dbf4(ASK) [1-674(end) amino acids of accession number NP_006707.1] using baculovirus expression system. GST-Cdc7 was purified by using glutathione sepharose chromatography.
3. Assay Reagents and Procedures
Off-chip Mobility Shift Assay (MSA)
1) The […] of ×2 kinase solution were prepared with assay buffer (20 mM HEPES, 0.01% Triton X-100, 1 mM DTT, pH 7.5) and mixed and incubated in a well of polypropylene 384 well microplate for 5 hours at room temperature. 2) […] of Termination Buffer (QuickScout Screening Assist MSA; Carna Biosciences) was added to the well. 3) The reaction mixture was applied to LabChip system (Perkin Elmer), and the product and substrate peptide peaks were separated and quantitated. 4) The kinase reaction was evaluated by the product ratio calculated from peak heights of product (P) and substrate (S) peptides (P/(P+S)).
Reaction time is 5 hours.
The readout value of reaction control (complete reaction mixture) was set as a 0% inhibition, and the readout value of background (Enzyme(−)) was set as a 100% inhibition, then the percent inhibition of each test solution was calculated.
IC50 value was calculated from concentration vs. % Inhibition curves by fitting to a four parameter logistic curve.

Cdc7/ASK, sequence (O00311 whole entry): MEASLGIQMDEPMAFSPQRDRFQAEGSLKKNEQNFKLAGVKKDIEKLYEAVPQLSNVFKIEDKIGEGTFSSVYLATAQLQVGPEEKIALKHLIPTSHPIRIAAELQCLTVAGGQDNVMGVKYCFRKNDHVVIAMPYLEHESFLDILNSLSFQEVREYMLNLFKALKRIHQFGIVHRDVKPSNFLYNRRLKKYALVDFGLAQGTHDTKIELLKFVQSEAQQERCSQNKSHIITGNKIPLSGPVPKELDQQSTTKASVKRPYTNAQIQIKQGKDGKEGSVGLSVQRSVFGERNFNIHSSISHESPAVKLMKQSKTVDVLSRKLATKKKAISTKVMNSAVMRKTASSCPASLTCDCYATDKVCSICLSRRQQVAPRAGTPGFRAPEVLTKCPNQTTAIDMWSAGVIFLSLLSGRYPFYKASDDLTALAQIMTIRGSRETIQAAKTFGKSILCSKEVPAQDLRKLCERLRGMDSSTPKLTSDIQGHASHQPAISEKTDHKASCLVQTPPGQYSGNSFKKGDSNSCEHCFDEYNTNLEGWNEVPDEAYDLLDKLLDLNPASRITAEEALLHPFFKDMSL
Cdc7/ASK, sequence (Q9UBU7 whole entry partner): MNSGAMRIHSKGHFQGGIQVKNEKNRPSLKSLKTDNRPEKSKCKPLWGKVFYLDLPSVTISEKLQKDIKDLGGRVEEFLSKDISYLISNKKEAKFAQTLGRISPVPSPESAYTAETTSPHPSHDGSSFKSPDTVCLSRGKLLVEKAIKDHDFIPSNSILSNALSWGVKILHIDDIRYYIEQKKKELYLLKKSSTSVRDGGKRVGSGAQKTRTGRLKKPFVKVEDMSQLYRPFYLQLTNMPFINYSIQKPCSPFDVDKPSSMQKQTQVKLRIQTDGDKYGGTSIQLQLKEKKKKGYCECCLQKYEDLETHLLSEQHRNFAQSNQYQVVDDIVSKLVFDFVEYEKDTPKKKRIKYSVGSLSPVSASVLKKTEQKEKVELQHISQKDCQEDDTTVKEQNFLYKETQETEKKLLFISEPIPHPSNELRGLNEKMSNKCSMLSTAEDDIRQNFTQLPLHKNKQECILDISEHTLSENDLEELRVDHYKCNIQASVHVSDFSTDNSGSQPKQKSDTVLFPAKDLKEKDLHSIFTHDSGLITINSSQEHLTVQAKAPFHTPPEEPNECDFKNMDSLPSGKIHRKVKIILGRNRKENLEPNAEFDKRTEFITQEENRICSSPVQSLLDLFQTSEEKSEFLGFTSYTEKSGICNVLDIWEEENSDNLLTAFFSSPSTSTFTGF

Row | SMILES | Biomarker Method 3 (pEC50) [1] | IC50 (Cdc7/ASK) [nM] | EC50 [1] [nM] | Biomarker Method 3 (pEC50) ([1]; hydrochloride)
1 | O=c1[nH]c(-c2ccnc(F)c2)nc(N2CCNCC(F)C2)c1Cl (centres unmarked) [Compound 373] | – | 5.25 | 389 | –
2 | Cl.O=c1[nH]c(-c2ccnc(F)c2)nc(N2CCNCC(C(F)(F)F)C2)c1Cl (centres unmarked) [Compound 386] | 6.00 | 5.62 | – | –
3 | CN1CCN(c2nc(-c3ccnc(F)c3)[nH]c(=O)c2Cl)CC(F)(F)C1 [Compound 415, 5-chloro-4-(6,6-difluoro-4-methyl-1,4-diazepan-1-yl)-2-(2-fluoro-4-pyridyl)-1H-pyrimidin-6-one] | – | 9.33 | 708 | –
4 | O=c1[nH]c(-c2ccnc(F)c2)nc(N2CCNCC2C(F)F)c1Cl (centres unmarked) [Compound 376] | – | 5.5 | 141 | –
5 | CC(C)(F)C1CN(c2nc(-c3ccnc(F)c3)[nH]c(=O)c2Cl)CCN1 (single isomer, unassigned) [Compound 381, 5-chloro-4-[3-(1-fluoro-1-methyl-ethyl)piperazin-1-yl]-2-(2-fluoro-4-pyridyl)-1H-pyrimidin-6-one hydrochloride] | – | 70.8 | – | 5.32
6 | CC(F)(F)C1CNCCN1c1nc(-c2ccnc(F)c2)[nH]c(=O)c1Cl (centres unmarked) [Compound 392] | – | 38.9 | 5750 | –
7 | O=c1[nH]c(-c2ccnc(F)c2)nc(N2CCNCC(C(F)(F)F)C2)c1Cl (centres unmarked) [Compound 375] | – | 7.41 | 1230 | –
8 | Cl.O=c1[nH]c(-c2ccnc(F)c2)nc(N2CCNCC2C(F)F)c1Cl (single isomer, unassigned) [Compound 389] | 5.68 | 21.4 | – | –
9 | O=c1[nH]c(-c2ccnc(F)c2)nc(N2CCNCC23CC3)c1Cl [Compound 377] | – | 4.37 | 148 | –
10 | O=c1[nH]c(-c2ccnc(Cl)c2)nc(N2CCNCC(F)(F)C2)c1Cl [Compound 401] | – | 4.79 | 437 | –
11 | Cl.O=c1[nH]c(-c2ccnc(F)c2)nc(N2CCNC(C3CC3)C2)c1Cl (single isomer, unassigned) [Compound 393] | 5.90 | 13.8 | – | –
12 | Cl.O=c1[nH]c(-c2ccnc(F)c2)nc(N2CCNC(C3CC3)C2)c1Cl (single isomer, unassigned) [Compound 394] | 5.26 | 70.8 | – | –
13 | CC(C)(F)C1CN(c2nc(-c3ccnc(F)c3)[nH]c(=O)c2Cl)CCN1 (single isomer, unassigned) [Compound 382, 5-chloro-4-[3-(1-fluoro-1-methyl-ethyl)piperazin-1-yl]-2-(2-fluoro-4-pyridyl)-1H-pyrimidin-6-one hydrochloride] | – | 11.7 | – | 6.16

More lines, now with the values ahead:

Row | Biomarker Method 3 (pEC50) [1] | IC50 (Cdc7/ASK) [nM] | EC50 [1] [nM] | Biomarker Method 3 (pEC50) ([1]; hydrochloride) | SMILES
14 | 6.51 | 6.03 | – | – | Cl.O=c1[nH]c(-c2ccncc2)nc(N2CCNCC2C(F)(F)F)c1Cl (single isomer, unassigned) [Compound 387]
15 | 6.97 | 4.27 | – | – | Cl.O=c1[nH]c(-c2ccnc(F)c2)nc(N2CCNCC2C(F)F)c1Cl (single isomer, unassigned) [Compound 390]
16 | – | 7.76 | – | 5.67 | C[C@H]1CN[C@@H](C(F)(F)F)CN1c1nc(-c2ccnc(F)c2)[nH]c(=O)c1Cl.Cl (single isomer, unassigned) [Compound 395, Cis-5-chloro-2-(2-fluoro-4-pyridyl)-4-[2-methyl-5-(trifluoromethyl)piperazin-1-yl]-1H-pyrimidin-6-one hydrochloride]
17 | – | 3.98 | – | 6.70 | O=c1[nH]c(-c2ccnc(F)c2)nc(N2CCNCC(F)C2)c1Cl (single isomer, unassigned) [Compound 380, 5-chloro-4-(6-fluoro-1,4-diazepan-1-yl)-2-(2-fluoro-4-pyridyl)-1H-pyrimidin-6-one hydrochloride]
18 | 5.29 | 91.2 | – | – | Cl.O=c1[nH]c(-c2ccncc2)nc(N2CCNCC2C(F)(F)F)c1Cl (single isomer, unassigned) [Compound 388]
19 | – | 35.5 | 3550 | – | O=c1[nH]c(-c2ccncc2)nc(N2CCNCC2C(F)F)c1Cl (centres unmarked) [Compound 391]
20 | – | 5.75 | 437 | – | O=c1[nH]c(-c2ccncc2)nc(N2CCNCC(F)(F)C2)c1Cl [Compound 374]
21 | 5.33 | 42.7 | – | – | Cl.O=c1[nH]c(-c2ccnc(F)c2)nc(N2CCNCC2C(F)(F)F)c1Cl (single isomer, unassigned) [Compound 384]
22 | – | 8.51 | 759 | – | O=c1[nH]c(-c2ccnc(F)c2)nc(N2CCNCC2C(F)(F)F)c1Cl (centres unmarked) [Compound 313, 5-chloro-2-(2-fluoro-4-pyridyl)-4-[2-(trifluoromethyl)piperazin-1-yl]-1H-pyrimidin-6-one hydrochloride]
23 | – | 5.75 | 195 | – | C[C@@H]1CNCCN1c1nc(-c2ccncc2F)[nH]c(=O)c1Cl [Compound 400]
24 | – | 135 | – | 5.11 | C[C@H]1CN[C@@H](C(F)(F)F)CN1c1nc(-c2ccnc(F)c2)[nH]c(=O)c1Cl.Cl (single isomer, unassigned) [Compound 396, Cis-5-chloro-2-(2-fluoro-4-pyridyl)-4-[2-methyl-5-(trifluoromethyl)piperazin-1-yl]-1H-pyrimidin-6-one hydrochloride]
25 | 6.67 | 4.47 | – | – | Cl.O=c1[nH]c(-c2ccnc(F)c2)nc(N2CCNCC2C(F)(F)F)c1Cl (single isomer, unassigned) [Compound 383]
26 | 5.87 | 11.5 | – | – | Cl.O=c1[nH]c(-c2ccnc(F)c2)nc(N2CCNCC(C(F)(F)F)C2)c1Cl (centres unmarked) [Compound 385]
27 | – | 7.94 | – | 5.88 | O=c1[nH]c(-c2ccnc(F)c2)nc(N2CCNCC(F)C2)c1Cl (single isomer, unassigned) [Compound 379, 5-chloro-4-(6-fluoro-1,4-diazepan-1-yl)-2-(2-fluoro-4-pyridyl)-1H-pyrimidin-6-one hydrochloride]
28 | – | 12.6 | 1660 | – | O=c1[nH]c(-c2ccncc2F)nc(N2CCNCC(F)(F)C2)c1Cl [Compound 399, 5-chloro-4-(6,6-difluoro-1,4-diazepan-1-yl)-2-(3-fluoro-4-pyridyl)-1H-pyrimidin-6-one hydrochloride]

— patent US10919896B2, “Preparation and uses of pyrimidinone derivatives” (Cancer Research Technology Limited, priority 2016, dated 2021)
